Measurements reported in patent publication US20260265194A1, “COMPOUNDS FOR THE TREATMENT OF HIV” (THE TRUSTEES OF THE UNIVERSITY OF PENNSYLVANIA, priority 2022, published 2026).

Tests used:
BG505, cladeA HIV-1 = experiment: Single-round pseudovirus infection inhibition (luciferase), BG505 Env; format: cell-based; details: Cf2Th target cells expressing CD4 and CCR5
Experimental: (§1) Cell lines. 293T cells were grown in Dulbecco's modified Eagle's medium (DMEM) (Life Technologies, Wisent Inc.) supplemented with 10% fetal bovine serum (FBS) (Life Technologies, VWR) and 100 µg/ml of penicillin-streptomycin (Life Technologies, Wisent Inc.). Cf2Th cells stably expressing the human CD4 and CCR5 coreceptors for HIV-1 were grown in the same medium supplemented with 0.4 mg/ml of G418 and 0.2 mg/ml of hygromycin.
(§2) CD4-mimetic compound. The compounds of the disclosure (CD4mc) were dissolved in dimethyl sulfoxide (DMSO) at a stock concentration of 10 mM and diluted to the appropriate concentration for antiviral assays.
(§3) Production of recombinant pseudoviruses expressing luciferase. 293T cells were transfected with pSVIIIenv plasmids expressing Env from HIV-1 strain variants, the pCMVΔP1Δenv HIV-1 Gag-Pol packaging construct and the firefly luciferase-expressing HIV-1 vector at a 1:1:3 μg DNA ratio using effectene transfection reagent (Qiagen). […]
(§4) Virus infectivity and inhibition. […] Forty-eight h later, the target cells were lysed and the luciferase activity was measured.
(§5) For inhibition assays, the compounds to be tested were incubated at various concentrations with recombinant pseudoviruses for 1 h at 37° C. […] Forty-eight hours later, the target cells were lysed and the luciferase activity was measured. […]

HIV-1 JR-FL = experiment: Single-round pseudovirus infection inhibition (luciferase), JR-FL Env; format: cell-based; details: Cf2Th target cells expressing CD4 and CCR5
Experimental: as §1, §2, §3, §4, §5

HIV-1 AD8 = experiment: Single-round pseudovirus infection inhibition (luciferase), AD8 Env; format: cell-based; details: Cf2Th target cells expressing CD4 and CCR5
Experimental: as §1, §2, §3, §4, §5

HIVJR-FL-infected cells = experiment: ADCC killing of HIVJR-FL-infected cells; format: cell-based, HIV-1
Excerpt: (§6) The ability of the compounds of the disclosure to enhance Ab recognition of Env on the surface of infected cells and mediate ADCC was examined. Via HIV+ plasma binding, it was observed that CJF-III-192 was able to enhance Ab recognition to a greater degree than BNM-III-170 (7-fold vs 2-fold enhancement vs DMSO) for JR-FL infected primary T-cells. Additionally, when comparing the % ADCC activity of these two compounds, it was observed that CJF-III-192 could achieve up to 8% killing of HIVJR-FL-infected cells, while BNM-III-170 could only attain levels up to 5%. This effect on ADCC activity was more pronounced with HIVCH58TF-infected cells; 18% killing for CJF-III-192 vs. 8% killing with […].

[1] = test system: Env on JR-FL infected primary T-cells; experiment: HIV+ plasma binding (Ab recognition of Env on infected cells); format: cell-based, HIV-1
Excerpt: as §6

HIVCH58TF-infected cells = experiment: ADCC killing of HIVCH58TF-infected cells; format: cell-based, HIV-1
Excerpt: as §6

[2] = test system: mutant HIV-1AD8 batches 130_3 and 130_C; experiment: Entry inhibition of CD4mc resistant AD8 variants; format: cell-based; details: up to 300 μM
Experimental: CD4mc resistant variants of Clade B virus AD8 were also selected by incubating infected host cells with increasing concentrations of BNM-III-170. […] These resistant strains of AD8 were sequenced to find specific mutations in the gp120 monomer that conferred the greatest resistance to BNM-III-170. Of these mutations examined, E64G, S375N, and I424T conferred the greatest resistance to treatment with compounds of the disclosure.
Each of the mutations individually were able to increase resistance to BNM-III-170, but were most resistant when combined as in HIV-1AD8 isolates 130_3 and 130_C. […] This was true with the individual mutations discussed above, as well as the original resistant mutants 130_3 and 130_C.

## CNCc1ccc2c(c1)C[C@H](CN=C(N)N)[C@H]2NC(=O)C(=O)Nc1ccc(Cl)c(F)c1.O=C(O)C(F)(F)F.O=C(O)C(F)(F)F [BNM-III-170]
BG505, cladeA HIV-1
  IC50: > 300 µM
HIV-1 JR-FL
  IC50: 12.2 µM
HIV-1 AD8
  IC50: 1.7 µM
HIVJR-FL-infected cells
  % ADCC activity (killing): up to 5%
[1]
  enhancement of Ab recognition vs DMSO: 2 fold
HIVCH58TF-infected cells
  % ADCC activity (killing): 8%
[2]
  entry inhibition of resistant mutants: completely resistant
